Results on 18 compounds are retold here after patent US20210122763A1, “OGA INHIBITOR COMPOUNDS” (Janssen Pharmaceutica NV, priority 2018, published 2021).

Some results are limits rather than exact numbers.

For experiment [1], the target named is T1, recombinant human Meningioma Expressed Antigen 5 (MGEA5), also referred to as O-GlcNAcase (OGA) (Homo sapiens, UniProt O60502).
T1 construct: Full length OGA enzyme was purchased at OriGene (cat #TP322411); purchased OriGene TP322411
T1 sequence (O60502 1-916): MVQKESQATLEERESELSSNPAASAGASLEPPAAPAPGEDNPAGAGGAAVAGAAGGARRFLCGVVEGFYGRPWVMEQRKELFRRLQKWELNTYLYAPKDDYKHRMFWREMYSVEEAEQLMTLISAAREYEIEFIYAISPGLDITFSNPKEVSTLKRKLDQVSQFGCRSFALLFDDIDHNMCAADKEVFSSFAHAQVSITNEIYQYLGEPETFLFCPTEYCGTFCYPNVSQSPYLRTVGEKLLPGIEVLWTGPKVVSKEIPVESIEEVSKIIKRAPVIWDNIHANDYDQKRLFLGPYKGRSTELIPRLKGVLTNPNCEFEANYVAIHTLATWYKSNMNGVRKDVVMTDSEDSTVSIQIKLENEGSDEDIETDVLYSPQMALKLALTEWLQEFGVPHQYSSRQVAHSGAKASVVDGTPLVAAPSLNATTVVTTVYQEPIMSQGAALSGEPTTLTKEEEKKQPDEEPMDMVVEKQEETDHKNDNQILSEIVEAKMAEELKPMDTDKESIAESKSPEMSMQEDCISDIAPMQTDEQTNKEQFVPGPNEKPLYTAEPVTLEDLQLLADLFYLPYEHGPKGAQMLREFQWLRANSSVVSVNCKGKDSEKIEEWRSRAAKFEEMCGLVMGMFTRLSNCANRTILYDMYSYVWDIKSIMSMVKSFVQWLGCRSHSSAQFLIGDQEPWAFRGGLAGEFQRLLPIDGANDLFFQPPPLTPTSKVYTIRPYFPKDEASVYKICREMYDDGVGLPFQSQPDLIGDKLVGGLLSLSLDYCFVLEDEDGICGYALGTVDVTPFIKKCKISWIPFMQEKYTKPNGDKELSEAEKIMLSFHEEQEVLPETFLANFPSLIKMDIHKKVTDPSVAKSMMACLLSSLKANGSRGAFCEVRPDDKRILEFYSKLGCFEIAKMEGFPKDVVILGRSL
In words: OGA biochemical assay (inhibition of FM-GlcNAc hydrolysis, fluorescence). To be noted: for Emax: read-out: Enzymatic Emax (%); for IC50: read-out: Enzymatic hOGA, pIC50 (converted). The source says: The assay is based on the inhibition of the hydrolysis of fluorescein mono-B-D-N-Acetyl-Glucosamine (FM-GcNAc) (Mariappa et al. 2015, Biochem J470:255) by the recombinant human Meningioma Expressed Antigen 5 (MGEA5), also referred to as O-GlcNAcase (OGA). The hydrolysis FM-GlcNAc (Marker Gene technologies, cat #M1485) results in the formation of B-D-N-glucosamineacetate and fluorescein. The fluorescence of the latter can be measured at excitation wavelength 485 nm and emission wavelength 538 nm. An increase in enzyme activity results in anincrease in fluorescence signal. Full length OGA enzyme was purchased at OriGene (cat #TP322411). The enzyme was stored in 25 mM Tris.HCl, pH 7.3, 100 mM glycine, 10% glycerol at −20° C. Thiamet G and GlcNAcStatin were tested as reference compounds (Yuzwa et al. 2008 Nature Chemical Biology 4:483; Yuzwa et al. 2012 Nature Chemical Biology 8:393). The assay was performed in 200 mM Citrate/phosphate buffer supplemented with 0.005% Tween-20. 35.6 g Na2HPO4 2H2O (Sigma, #C0759) were dissolved in 1 L water to obtain a 200 mM solution. 19.2 g citric acid (Merck, #1.06580) was dissolved in 1 L water to obtain a 100 mM solution. pH of the sodiumphosphate solution was adjusted with the citric acid solution to 7.2. The buffer to stop the reaction consists of a 500 mM Carbonate buffer, pH 11.0. 734 mg FM-GlcNAc were dissolved in 5.48 mL DMSO to obtain a 250 mM solution and was stored at −20° C. OGA was used at a 2 nM concentration and FM-GcNAc at a 100 uM final concentration. Dilutions were prepared in assay buffer.
50 nl of a compound dissolved in DMSO was dispensed on Black Proxiplate™ 384 Plus Assay plates (Perkin Elmer, #6008269) and 3 μl fl-OGA enzyme mix added subsequently. Plates were pre-incubated for 60 min at room temperature and then 2 μl FM-GlcNAc substrate mix added.
Plates were briefly centrifuged for 1 min at 1000 rpm and incubate at room temperature for 6 h. To stop the reaction 5 μl STOP buffer were added and plates centrifuge again 1 min at 1000 rpm. Fluorescence was quantified in the Thermo Scientific Fluoroskan Ascent or the PerkinElmer EnVision with excitation wavelength 485 nm and emission wavelength 538 nm.
For analysis a best-fit curve is fitted by a minimum sum of squares method. From this an IC50 value and Hill coefficient was obtained. High control (no inhibitor) and low control (saturating concentrations of standard inhibitor) were used to define the minimum and maximum values.

A further experiment has as its target T2, OGA (Homo sapiens, UniProt O60502).
T2 construct: HEK293 cells inducible for P301L mutant human Tau (isoform 2N4R) were established at Janssen; endogenous in cells; host or cells: HEK293 cells inducible for P301L mutant human Tau (2N4R)
T2 sequence (O60502 1-916): T1 sequence (O60502 1-916)
The experiment can be described thus: OGA cellular assay (ICC detection of O-GlcNAcylated proteins in HEK293 cells inducible for P301L mutant human Tau). Type of experiment: cell-based. To be noted: 6 hours incubation; for Emax: HEK293, HEK293 cells inducible for P301L mutant human Tau; for Emax / Cellular Emax (%): maximum = Thiamet G 200 uM; for EC50 / Cellular Emax (%): HEK293 cells inducible for P301L mutant human Tau; for EC50: read-out: Cellular hOGA, pEC50 (converted). On the procedure: HEK293 cells inducible for P301L mutant human Tau (isoform 2N4R) were established at Janssen. Thiamet-G was used for both plate validation (high control) and as reference compound (reference EC50 assay validation). OGA inhibition is evaluated through the immunocytochemical (ICC) detection of O-GlcNAcylated proteins by the use of a monoclonal antibody (CTD110.6; Cell Signaling, #9875) detecting 0-GlcNAcylated residues as previously described (Dorfmueller et al. 2010 Chemistry & biology, 17:1250). Inhibition of OGA will result in an increase of 0-GlcNAcylated protein levels resulting in an increased signal in the experiment. Cell nuclei are stained with Hoechst to give a cell culture quality control and a rough estimate of immediate compounds toxicity, if any. ICC pictures are imaged with a Perkin Elmer Opera Phenix plate microscope and quantified with the provided software Perkin Elmer Harmony 4.1.
Cells were propagated in DMEM high Glucose (Sigma, #D5796) following standard procedures. 2 days before the cell assay cells are split, counted and seeded in Poly-D-Lysine (PDL) coated 96-wells (Greiner, #655946) plate at a cell density of 12,000 cells per cm^2 (4,000 cells per well) in 100p of Assay Medium (Low Glucose medium is used to reduce basal levels of GlcNAcylation) (Park et al. 2014 The Journal of biological chemistry 289:13519). At the day of compound test medium from assay plates was removed and replenished with 90 μl of fresh Assay Medium. 10 μl of compounds at a 10 fold final concentration were added to the wells. Plates were centrifuged shortly before incubation in the cell incubator for 6 hours. DMSO concentration was set to 0.2%. Medium is discarded by applying vacuum. For staining of cells medium was removed and cells washed once with 100 μl D-PBS (Sigma, #D8537). From next step onwards unless other stated assay volume was always 50p and incubation was performed without agitation and at room temperature. Cells were fixed in 50 μl of a 4% paraformaldehyde (PFA, Alpha aesar, #043368) PBS solution for 15 minutes at room temperature. […] Before analysis samples were washed 2 times manually for 5 minutes in ICC base buffer.
Imaging is performed using Perkin Elmer Phenix Opera using a water 20× objective and recording 9 fields per well. Intensity readout at 488 nm is used as a measure of O-GlcNAcylation level of total proteins in wells. To assess potential toxicity of compounds nuclei were counted using the Hoechst staining. IC50-values are calculated using parametric non-linear regression model fitting. As a maximum inhibition Thiamet G at a 200 uM concentration is present on each plate. In addition, a concentration response of Thiamet G is calculated on each plate.

Broadly, the Emax is the size of the effect at its maximum, as opposed to the concentration needed. With `Cc1cc(OC2CCN(C(C)c3ccc4c(n3)OCCO4)CC2)cc(OC(C)C)n1` (stereo not drawn) [Compound 124], in experiment [1], the Emax came to 98% and the IC50 is 0.0316 µM. Besides, at OGA, the Emax came out at 64% and the EC50 is 0.1 µM.

With `Cc1cnc(OC2CCN(C(C)c3nc4c(cc3F)OCCO4)CC2)cc1C` (stereo not drawn) [Compound 157], in experiment [1], the Emax was found to be 94% and the IC50 was 0.02 µM. At OGA, the Emax amounted to 80% and the EC50 was 0.158 µM.

In the case of `CC(c1ccc2c(n1)OCCO2)N1CCC(Oc2cc[nH]c(=O)c2)CC1` (stereo not drawn) [Compound 93], in experiment [1], the Emax amounted to 98% and the IC50 is 0.251 µM. Moreover, on OGA, the maximal response (Emax) was found to be 34% and the EC50 is more than 1 µM.

Turning to `Cc1cc(COC2CCN(C(C)c3nc4c(cc3F)OCCO4)CC2)cc(C)n1` (stereo not drawn) [Compound 159], in experiment [1], the Emax came out at 94% and the IC50 was 0.0126 µM. Further, on OGA, the Emax was determined as 75% and the EC50 was 0.0631 µM.

In the case of `Cc1ncc(OC2CCN(C(C)c3nc4c(cc3F)OCCO4)CC2)nc1C` (stereo not drawn) [Compound 110], in experiment [1], the Emax is 101% and the IC50 is 0.00794 µM. In addition, on OGA, the Emax worked out at 79% and the EC50 was 0.1 µM.

As to `Cc1cc(OC2CCN(C(C)c3cnc4c(c3)OCCO4)CC2)nc(C)n1` (stereo not drawn) [Compound 13], in experiment [1], the Emax stood at 96% and the IC50 was 0.501 µM. Moreover, on OGA, the Emax was 8% and the EC50 was more than 1 µM.

Consider `COc1cc(OC2CCN(C(C)c3cnc4c(c3)OCCO4)CC2)cc(C)n1` (stereo not drawn) [Compound 37], for which, in experiment [1], the Emax was 98% and the IC50 was 0.398 µM. Moreover, on OGA, the Emax was determined as 23% and the EC50 is more than 1 µM.

For `C[C@@H](c1nc2c(cc1F)OCCO2)N1CCC(Oc2ccc(C#N)nn2)CC1` (single isomer, unassigned) [Compound 86], in experiment [1], the Emax amounted to 94% and the IC50 is 0.0158 µM. Besides, at OGA, the Emax is 100% and the EC50 was 0.1 µM.

On to `Cc1ncccc1OC1CCN(C(C)c2ccc3c(n2)OCCO3)CC1` (stereo not drawn) [Compound 116], for which, in experiment [1], the Emax amounted to 96% and the IC50 is 0.126 µM. In addition, at OGA, the Emax is 42% and the EC50 is more than 1 µM.

As for `CC(c1ccc2c(n1)OCCO2)N1CCC(Oc2cnc(Cl)c(F)c2)CC1` (stereo not drawn) [Compound 69], in experiment [1], the Emax is 95% and the IC50 was 0.0794 µM. Also, on OGA, the Emax is 68% and the EC50 is 0.501 µM.

`COc1cc(OC2CCN(C(C)c3nc4nc(C)sc4cc3F)CC2)cc(C)n1` (stereo not drawn) [Compound 79]: in experiment [1], the maximal response (Emax) came to 101% and the IC50 is 0.00316 µM. Further, at OGA, the Emax came out at 72% and the EC50 is 0.0398 µM.

`COc1cc(OC2CCN(C(C)c3ccc4sc(C)nc4n3)CC2)cc(C)n1` (single isomer, unassigned) [Compound 24]: in experiment [1], the “Enzymatic Emax (%)” value turned out to be 98% and the IC50 is 0.02 µM. In addition, on OGA, the “Cellular Emax (%)” value is 72% and the EC50 was 0.1 µM.

In the case of `CC(c1nc2c(cc1F)OCCO2)N1CCC(Oc2ccnc(C#N)c2)CC1` (stereo not drawn) [Compound 155], in experiment [1], the Emax worked out at 94% and the IC50 was 0.0158 µM. At OGA, the Emax turned out to be 67% and the EC50 was 0.0794 µM.

`Cc1cc(OC2CCN([C@@H](C)c3ccc4c(n3)OCCO4)CC2)cc(C(F)(F)F)n1` (single isomer, unassigned) [Compound 147]: in experiment [1], the Emax was 96% and the IC50 was 0.0251 µM. For the same compound, on OGA, the Emax amounted to 81% and the EC50 was 0.2 µM.

Consider `COc1cc(OC2CCN(C(C)c3ccc4c(n3)OCCO4)CC2)ccn1` (stereo not drawn) [Compound 72], for which, in experiment [1], the Emax amounted to 101% and the IC50 is 0.0316 µM. Further, at OGA, the Emax was 60% and the EC50 was 0.251 µM.

Consider `C[C@@H](c1ccc2c(n1)OCCO2)N1CCC(Oc2ccc(C(N)=O)nn2)CC1` (single isomer, unassigned) [Compound 106], for which, in experiment [1], the Emax amounted to 95% and the IC50 is 0.126 µM. In addition, at OGA, the Emax is 48% and the EC50 was 0.631 µM.

`COc1cc(OC2CCN(C(C)c3ccc4c(n3)OCCO4)CC2)cc(C)n1` (single isomer, unassigned) [Compound 54]: in experiment [1], the “Enzymatic Emax (%)” value amounted to 100% and the IC50 is 0.0126 µM. In addition, on OGA, the “Cellular Emax (%)” value was 83% and the EC50 was 0.126 µM.

Take `COc1cc(OC2CCN(C(C)c3ccc4c(n3)OCCO4)CC2)cc(C)n1` (single isomer, unassigned) [Compound 53]: in experiment [1], the “Enzymatic Emax (%)” value was found to be 55% and the IC50 is 7.94 µM. On OGA, the “Cellular Emax (%)” value was −8% and the EC50 was more than 1 µM.
